Experimental data: patent US20180298024A1, “CORTISTATIN ANALOGS AND USES THEREOF” (President and Fellows of Harvard College, priority 2015, published 2018)
Values joined by “and” are separate entries in the source; they are usually repeats but may differ in a detail not shown here. Equal entries are not always repeated. Where two headings read alike, the source gives them in different places.

Tests used:
sodium channel = assay: Panlab sodium channel assay; type: binding; settings: 10 μM
Protocol: (§1) Compounds A, B, C, and D were tested in Panlab assays to evaluate potential off-target activity using standard assay kits. Methods employed in these studies have been adapted from the scientific literature to maximize reliability and reproducibility. Reference standards were run as an integral part of each assay to ensure the validity of the results obtained.
(§2) Compound B was tested in a subset of 30 Panlab assays that included the hits from screening Compound F in addition to the Panlab hERG and sodium channel assay. This allows direct comparison of Compound B to Compound F in terms of off-target profile.

off-targets (Panlabs) = assay: Panlab off-target assay panel; type: binding; settings: 10 μM; for number of targets with ≥75% inhibition: Safety Panel = 28 binding assays (Eurofins Panlabs)
Protocol: as §1
IC50 values were determined by a non-linear, least squares regression analysis using MathIQ™ (ID Business Solutions Ltd., UK). Where inhibition constants (Ki) are presented, the Ki values were calculated using the equation of Cheng and Prusoff (Cheng, Y., Prusoff, W. H., Biochem. Pharmacol. 22:3099-3108, 1973) using the observed IC50 of the tested compound, the concentration of radioligand employed in the assay, and the historical values for the KD of the ligand (obtained experimentally at Eurofins Panlabs, Inc.). Where presented, the Hill coefficient (nH), defining the slope of the competitive binding curve, was calculated using MathIQ™.

[1] = molecular target: hERG (human ether-à-go-go-related gene) potassium channel (Homo sapiens, UniProt Q12809); assay: cell-based; settings: for IC50: hERG IC50, QPatch HT, room temperature
Chain of hERG (human ether-à-go-go-related gene) potassium channel (Q12809 whole entry): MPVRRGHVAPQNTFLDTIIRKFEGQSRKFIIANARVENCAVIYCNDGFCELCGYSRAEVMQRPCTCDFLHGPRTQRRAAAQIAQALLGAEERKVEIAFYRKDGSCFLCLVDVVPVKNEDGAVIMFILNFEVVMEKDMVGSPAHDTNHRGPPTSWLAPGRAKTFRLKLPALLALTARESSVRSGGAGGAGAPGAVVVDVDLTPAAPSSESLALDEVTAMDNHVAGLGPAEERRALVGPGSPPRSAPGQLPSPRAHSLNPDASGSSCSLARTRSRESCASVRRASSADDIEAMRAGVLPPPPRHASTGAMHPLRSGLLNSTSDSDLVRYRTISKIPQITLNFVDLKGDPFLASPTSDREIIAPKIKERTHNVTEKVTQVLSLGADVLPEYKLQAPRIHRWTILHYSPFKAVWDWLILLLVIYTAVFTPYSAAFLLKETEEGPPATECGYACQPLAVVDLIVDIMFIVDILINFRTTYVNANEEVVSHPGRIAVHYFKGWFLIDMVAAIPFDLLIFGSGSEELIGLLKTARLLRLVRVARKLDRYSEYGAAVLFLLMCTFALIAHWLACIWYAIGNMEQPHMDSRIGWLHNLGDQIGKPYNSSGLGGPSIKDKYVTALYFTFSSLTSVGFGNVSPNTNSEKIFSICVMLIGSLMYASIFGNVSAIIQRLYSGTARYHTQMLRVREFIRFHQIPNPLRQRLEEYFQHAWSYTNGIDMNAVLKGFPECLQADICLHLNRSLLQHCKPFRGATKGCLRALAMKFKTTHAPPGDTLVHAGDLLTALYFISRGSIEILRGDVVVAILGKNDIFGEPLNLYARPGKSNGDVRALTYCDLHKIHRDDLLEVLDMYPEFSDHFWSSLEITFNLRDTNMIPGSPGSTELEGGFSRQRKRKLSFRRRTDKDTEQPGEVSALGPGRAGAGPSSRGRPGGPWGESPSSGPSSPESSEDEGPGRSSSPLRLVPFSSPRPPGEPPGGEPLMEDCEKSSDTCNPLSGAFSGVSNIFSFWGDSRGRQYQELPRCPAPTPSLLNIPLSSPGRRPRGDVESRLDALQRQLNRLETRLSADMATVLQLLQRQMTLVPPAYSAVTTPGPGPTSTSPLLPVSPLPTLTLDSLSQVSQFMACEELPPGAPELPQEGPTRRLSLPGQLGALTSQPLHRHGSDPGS
Protocol: (§3) The in vitro effects of compounds A, B, C, D, E, and F on the hERG (human ether-à-go-go-related gene) potassium channel current (a surrogate for IKr, the rapidly activating, delayed rectifier cardiac potassium current) expressed in mammalian cells were evaluated at room temperature using the QPatch HT (Sophion Bioscience A/S, Denmark), an automatic parallel patch clamp system. The test articles were evaluated at 1 μM, 3 μM, […] and 30 μM. Each test article concentration was tested in at least three cells. The duration of exposure to each test article concentration was a minimum of 3 minutes.

hERG potassium channel = hERG potassium channel (Homo sapiens, UniProt Q12809); assay: in vitro; settings: human
Chain of hERG potassium channel (Q12809 whole entry): as above
Protocol: as §3

[2] = TurboSol solubility evaluation in physiological saline; type: physicochemical; settings: HB-PS+0.3% DMSO
CDK8 [3] = molecular target: T1, CDK8 (Homo sapiens, UniProt P49336); assay: CDK8 IC50 determination (Example 9); type: biochemical
T1 sequence (P49336 whole entry): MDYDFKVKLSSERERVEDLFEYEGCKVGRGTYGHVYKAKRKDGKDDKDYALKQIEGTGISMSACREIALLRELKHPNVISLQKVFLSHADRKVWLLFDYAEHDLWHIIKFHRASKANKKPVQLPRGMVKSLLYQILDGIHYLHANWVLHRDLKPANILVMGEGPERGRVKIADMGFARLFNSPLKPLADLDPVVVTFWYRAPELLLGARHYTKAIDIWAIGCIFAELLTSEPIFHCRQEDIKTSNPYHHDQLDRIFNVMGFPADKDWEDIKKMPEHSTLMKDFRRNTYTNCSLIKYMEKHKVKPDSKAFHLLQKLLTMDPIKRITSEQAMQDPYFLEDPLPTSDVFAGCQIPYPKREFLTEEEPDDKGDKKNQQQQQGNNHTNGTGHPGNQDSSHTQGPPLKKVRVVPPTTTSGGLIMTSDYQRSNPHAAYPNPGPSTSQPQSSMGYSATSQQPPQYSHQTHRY
T1 sequence (P24863 whole entry partner): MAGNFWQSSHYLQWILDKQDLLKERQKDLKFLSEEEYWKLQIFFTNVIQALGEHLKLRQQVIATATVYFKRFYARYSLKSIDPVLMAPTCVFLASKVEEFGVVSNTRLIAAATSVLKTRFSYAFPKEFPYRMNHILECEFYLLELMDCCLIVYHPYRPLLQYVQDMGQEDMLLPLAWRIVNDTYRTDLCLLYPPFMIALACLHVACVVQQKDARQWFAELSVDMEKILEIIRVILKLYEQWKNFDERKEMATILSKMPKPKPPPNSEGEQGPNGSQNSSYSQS

CDK8 [4] = molecular target: T1, CDK8; assay: CDK8 Kd and residence time; type: binding
CDK8 [5] = molecular target: T1, CDK8; assay: Western blot study of CDK8 inhibition; type: cell-based; settings: decreased staining results from inhibition of the target
Protocol: CDK8 inhibition in cells as measured by inhibition of Interferon-gamma (IFNγ)-stimulated STAT1-S727 phosphorylation. The compounds were provided as 200 μl of 1×10^−03 M/100% stock solutions in vials. The vials arrived in good condition and 2×100 μl each of the stock solutions were transferred into wells A2 to H2 of a 96 well “master plate” (barcoded “11273-UNH-01”), according to Table 12.
The dose response curves presented above were corroborated with western blot studies.

SKNO-1 = assay: Half-maximal growth inhibition (GI50), SKNO-1; type: cell-based; settings: Homo sapiens, 240 h, AML, M2, RUNX1-RUNX1T1, read-out: GI50 (nM), day 10
Protocol: (§4) Compounds A, B, C, D, and F were tested against various cell lines to probe their broad utility against cancer. Cortistatin A (CA) was also tested against the cell lines in a head to head fashion.

MV4; 11 = assay: Half-maximal growth inhibition (GI50), MV4; 11; type: cell-based; settings: Homo sapiens, 240 h, AML, M5, MLL-AF4, read-out: GI50 (nM), day 10
Protocol: as §4

MOLM-14 = assay: Half-maximal growth inhibition (GI50), MOLM-14; type: cell-based; settings: Homo sapiens, 240 h, AML, M5, MLL-AF9, read-out: GI50 (nM), day 10
Protocol: as §4

HEL = assay: Half-maximal growth inhibition (GI50), HEL; type: cell-based; settings: Homo sapiens, 240 h, AML, erythroleukemia, JAK2V617F, read-out: GI50 (nM), day 10
Protocol: as §4

[6] = test system: SET-2 AML cell line (FLAG-CDK8 WT vs FLAG-CDK8-W105M); assay: CDK8 W105M versus wild type SET-2 cell competition (flow cytometry); type: cell-based; settings: after 3 days and 7 days of treatment
Protocol: Compounds A, B, C, and D inhibit SET-2 AML cell line proliferation by inhibiting CDK8. ZsGreen (Clontech) and FLAG-CDK8 WT (wild type) or mCherry (Clontech) and FLAG-CDK8-W105M were expressed in SET 2 cells. The cells were mixed, the ratio of red to green fluorescence was determined by flow cytometry, and the cells were treated with the indicated compounds. After 3 days and 7 days of treatment, the ratio of red to green fluorescent cells was determined.

hERG = hERG (Homo sapiens, UniProt Q12809); assay: Panlab hERG assay; type: binding; design: Eurofins Panlabs
Chain of hERG (Q12809 whole entry): as the sequence (Q12809 whole entry) above
Protocol: as §1, §2

[7] = Pharmacokinetic profile in mice (plasma, LC-MS/MS); settings: for Vd / clearance / AUC(0-inf) / Cmax / Tmax / bioavailability / concentration at 24 h: CD-1, mouse, plasma; for Vd / clearance: iv, 3 mg/kg; for AUC(0-inf) / Cmax / Tmax / bioavailability / concentration at 24 h: po; for ½ life: CD-1 mice
Protocol: Formulation correction for salt content was not required for this study. Materials were vortexed and sonicated at room temperature following addition of vehicle. The solutions were maintained at ambient temperature stirring in the dark for at least 30 minutes prior to dose administration. The formulations were then vortexed and sonicated briefly to help ensure solubility.
Mice were selected from the Testing Facility's rodent colony. The animals were enrolled in the study based on acceptable health as determined by Testing Facility personnel on the day of test article administration. Animals were held in environmental acclimation for at least 48 hours (±6 hours) prior to dosing. Animals were maintained at temperatures between 16-26° C. (62-78° F.) with the humidity range between 30-70%. Animals in all groups were fasted overnight and food was returned 4 hours following dosing. Water was provided ad libitum throughout the study.
Whole blood samples for plasma were either collected from each animal by either direct vein puncture of the submandibular vein (survival blood collection) or by cardiac puncture following euthanasia with CO2 (terminal blood collection). […] Following collection, whole blood was placed into a tube containing K2EDTA and immediately placed on wet ice until processed for plasma. Whole blood samples were centrifuged at 2200×g for 10 minutes in a refrigerated centrifuge (5±3° C.) to isolate plasma. The samples were transferred to individual polypropylene containers and immediately placed on dry ice before storage at −70±10° C. until analysis. Plasma collected from undosed spare animals was pooled and analyzed as well.
Once collected the mouse plasma studies were quantitated using LCMS/MS spectroscopy to determine the concentration of compound. […] Eight calibration standards containing the analyte and internal standard imipramine were prepared and analyzed at the beginning and at the end of the sequence. A calibration curve was generated and sample concentrations calculated using the Quantitation software MassHunter.

[8] = Individual Data Points (% Inhibition), hERG
[9] = read-out: IC50 (nM) against CDK8, average
[10] = tested in duplicate, read-out: IC50 against CDK8, single determinations

Structure (SMILES) | number of targets with ≥75% inhibition (off-targets (Panlabs)) | IC50 [1] | inhibition at 1 µM (hERG potassium channel; Mean % hERG Inhibition) | inhibition at 3 µM (hERG potassium channel; Mean % hERG Inhibition) | inhibition at 10 µM (hERG potassium channel; Mean % hERG Inhibition) | inhibition at 30 µM (hERG potassium channel; Mean % hERG Inhibition) | Average LSU (×1000) ([2]; 1 μM) | Average LSU (×1000) ([2]; 3 μM) | Average LSU (×1000) ([2]; 10 μM) | Average LSU (×1000) ([2]; 30 μM) | solubility in the TurboSol assay [2] | IC50 (CDK8 [3]; [9]) | IC50 (CDK8 [3]; [10]) | Kd (CDK8 [4]) | inhibition of CDK8 in Western blot (CDK8 [5]) | GI50 (SKNO-1) | GI50 (MV4; 11) | GI50 (MOLM-14) | GI50 (HEL) | ratio of red (CDK8 W105M) to green (wild type) fluorescent cells [6] | further results
C[C@]12CC=C3C=C4CC[C@@H](N5CC(N)C5)C[C@]45CC[C@]3(O5)[C@@H]1CC[C@@H]2c1ccc2ccncc2c1 [Compound C] | 4 | 10900 nM | 5.8% | 17.1% | 49.8% | 75.5% | 2.8 LSU (×1000) | 3.5 LSU (×1000) | 4.9 LSU (×1000) | 13.0 LSU (×1000) | slightly insoluble at 30 μM concentrations | 9.5 nM | 8.9 nM and 10.2 nM | 0.22 ± 0.03 nM | dose dependent response | 3 nM | 2 nM | 21 nM | > 1000 nM | dose-dependently shifted the ratio of red to green cells | % inhibition, Panlab sodium channel assay (sodium channel): 66%; number of targets with greater than 75% inhibition (off-targets (Panlabs); subset of 30 Panlab assays): 4; inhibition at 3 µM (hERG potassium channel; [8]): 12.7%; inhibition at 10 µM (hERG potassium channel; [8]): 45.8%; inhibition at 30 µM (hERG potassium channel; [8]): 66.9%; inhibition at 10 µM (hERG): 49%; Vd [7]: 26.4 L/kg; clearance [7]: 23.7 mL/min/kg; AUC(0-inf) ([7]; 10 mg/kg): 2970 ng·h/mL; Cmax ([7]; 10 mg/kg): 462 nM; Tmax ([7]; 10 mg/kg): 8 h; bioavailability ([7]; 10 mg/kg): 42.3%; concentration at 24 h ([7]; 10 mg/kg): 82.5 nM; ½ life ([7]; IV 3 mg/kg): 14.7 h; ½ life ([7]; PO 10 mg/kg): 6.68 h; AUC(0-inf) ([7]; male, 5 mg/kg): 1480 ng·h/mL
C[C@]12CC=C3C=C4CC[C@@H](O)C[C@]45CC[C@]3(O5)[C@@H]1CC[C@@H]2c1ccc2ccncc2c1 [Compound A, (3S,3aR,9R,10aR,12aS,12bR)-3-(isoquinolin-7-yl)-3a-methyl-1,2,3,3a,4,7,8,9,10,11,12,12b-dodecahydro-10a,12a-epoxybenzo[4,5]cyclohepta[1,2-e]inden-9-ol] | 0 | > 30000 nM | 4% | 9% | 19.6% | 43.7% | 5.8 LSU (×1000) | 5.1 LSU (×1000) | 9.0 LSU (×1000) | 41.0 LSU (×1000) | slightly insoluble at concentrations of 10 μM and 30 μM | 9.9 nM | 10.6 nM and 9.3 nM | 0.23 ± 0.02 nM | dose dependent response | 2 nM | 1.5 nM | 6 nM | > 1000 nM | dose-dependently shifted the ratio of red to green cells | number of targets with greater than 50% inhibition (off-targets (Panlabs); over 100 Panlab assays): 8; Mean % hERG Inhibition ([1]; human, 3 µM): 9.2%; inhibition at 10 µM (hERG potassium channel; [8]): 17.6%; residence time (CDK8 [4]): 447 min; Vd [7]: 1.12 L/kg; clearance [7]: 18.4 mL/min/kg; AUC(0-inf) ([7]; 10 mg/kg): 3970 ng·h/mL; Cmax ([7]; 10 mg/kg): 3870 nM; Tmax ([7]; 10 mg/kg): 0.5 h; bioavailability ([7]; 10 mg/kg): 43.9%; concentration at 24 h ([7]; 10 mg/kg): 1.8 nM; ½ life ([7]; IV 3 mg/kg): 4.08 h; ½ life ([7]; PO 10 mg/kg): 3.04 h; AUC(0-inf) ([7]; male, 20 mg/kg): 7940 ng·h/mL
C[C@]12CC=C3C=C4CC[C@@H](N5CC[C@@H](N)C5)C[C@]45CC[C@]3(O5)[C@@H]1CC[C@@H]2c1ccc2ccncc2c1 [Compound B] | 8 | 10700 nM | 4.1% | 18.9% | 44.5% | 82.7% | 2.2 LSU (×1000) | 3.2 LSU (×1000) | 4.5 LSU (×1000) | 8.6 LSU (×1000) | slightly insoluble at 30 μM concentrations | 9.1 nM | 5.5 nM and 12.7 nM | 0.19 ± 0.05 nM | dose dependent response | 3 nM | 4 nM | 31 nM | > 1000 nM | dose-dependently shifted the ratio of red to green cells | % inhibition, Panlab sodium channel assay (sodium channel): 65%; number of targets with greater than 50% inhibition (off-targets (Panlabs); subset of 30 Panlab assays): 8; fold less hERG activity than Compound E ([1]; human): 10-100 fold; inhibition at 1 µM (hERG potassium channel; [8]): 5.4%; inhibition at 3 µM (hERG potassium channel; [8]): 17.1%; inhibition at 30 µM (hERG potassium channel; [8]): 89.4%; inhibition at 10 µM (hERG): 34%; Vd [7]: 26.6 L/kg; clearance [7]: 31 mL/min/kg; AUC(0-inf) ([7]; 10 mg/kg): 1060 ng·h/mL; Cmax ([7]; 10 mg/kg): 218 nM; Tmax ([7]; 10 mg/kg): 2 h; bioavailability ([7]; 10 mg/kg): 19.8%; concentration at 24 h ([7]; 10 mg/kg): 26.4 nM; ½ life ([7]; IV 3 mg/kg): 18.7 h; ½ life ([7]; PO 10 mg/kg): 9.55 h; AUC(0-inf) ([7]; male, 10 mg/kg): 1060 ng·h/mL
